Results on six compounds are retold here after US12478569B2, “Compositions methods and device for enhancing dental care based on dead sea salt and cannabinoid or extract of cannabis plant” (CANNIBITE BVBA, priority 2019, dated 2025).

Structures are written as SMILES.

Holding throughout (type): cell-based
The test system of one assay is gingival plaque. Nature of the assay: Cannabinoid effects on gingival plaque in vitro in subjects with gum disease (FIG. 2). How it is done: FIG. 2A-2F illustrate the effects of selected cannabinoids on gingival plaque in various individuals. Samples of gingival plaque were obtained from individuals A-F with various degrees of gum disease, samples were plated in the presence of various cannabinoids, cannabinoid formulations or essential oils, and cultured as above (samples A-F correspond to plates 1-6).
The effects of cannabinoids on gum disease was further investigated in a series of subjects with various degrees of gingivitis (an earliest and mildest form) or periodontitis (full-fledged gum disease), the severity of gum disease was further evaluated using Dutch Periodontal Screening Index (DPSI).
Samples of gingival plaque were obtained from 6 subjects (A-F) with various degrees of gum disease, samples were plated and cultured for 2 days at 37° C. in the presence of various cannabinoids and cannabinoid combinations.

Another assay concerns dental flora (plaque). Nature of the assay: Cannabinoid sensitivity tests in vitro on dental flora (plaque) of 10 subjects. Set-up: key to suppression of bacterial flora (score): Increasing scores (+) indicate an increased suppression of bacterial flora. Conditions: for suppression of bacterial flora (score): dental flora in vitro. How it is done:
Subsequently, in a more extended in vitro trial the effectiveness of cannabinoids was determined in 10 subjects (A-J). Samples of dental flora (plaque) were collected by swabs, scrapes, and were tested on the following panel of cannabinoids and cannabinoid combinations: • 1=CBD • 2=CBD+CBN • 3=CBD+CBN+CBG • 4=CBD+CBN+CBG+CBC • 5=CBD+CBN+CBG+CBC+CBGA • 6=CHG reference antimicrobial agent • 7=control with no antiseptic or antimicrobial agent.
Bacterial sensitivity was determined by conventional methods, e.g., growth on selective media, microscopic fluorescence examination.

A further assay deals with dental biofilm/plaque. Kind of assay: Preliminary case study: dental biofilm/plaque sample plated and cultured in the presence of cannabinoids (FIG. 1). Conditions: dental plaque sample cultured for 2 days at 37° C. The method, then: FIG. 1 illustrates a case study on the antimicrobial effect of cannabinoids on dental plaque. A sample of dental plaque was plated in the presence CBD or CBG and a reference antimicrobial agent (chlorhexidine gluconate, CHG), and cultured for 2 days at 37° C. The resulting bacterial colonies are shown.
A sample of dental biofilm/plaque was obtained, plated and cultured for 2 days at 37° C. in the presence of two types of cannabinoids, CBD and CBG, and Chlorhexidine (CHG) as a reference antimicrobial agent.

[1] abbreviates: subject A, moderate gingivitis, DPSI score 1, 2 days at 37° C.
Where [2] appears, read: subject C, periodontitis, DPSI score −3, 2 days at 37° C.
Setting [3] is: subject D, moderate gingivitis, DPSI score 2, 2 days at 37° C.
[4] abbreviates: subject E, advanced periodontitis, DPSI score +3, 2 days at 37° C.
[5] abbreviates: subject F, moderate gingivitis, DPSI score 1, 2 days at 37° C.

For the compound `CCCCCc1cc(O)c2c(c1)OC(C)(CCC=C(C)C)C=C2` (stereo not drawn) [CBC, Cannabichromene], the Relative effectiveness result is “CBG > CBGA > CBN ≈ CBC” with gingival plaque (setting [1]); “CBC > CBG > CBD > CBN” with gingival plaque (setting [2]); “CBGA > CBC > CBG ≈ CBN” in the assay with gingival plaque (setting [3]); “CBG ≈ CBGA > CBC > CBD” with gingival plaque (setting [4]); “CBC > CBG ≈ CBGA ≈ CBD” in the assay with gingival plaque (setting [5]).

As to `C=C(C)[C@@H]1CCC(C)=C[C@H]1c1c(O)cc(CCCCC)cc1O` [CBD, Cannabidiol], the “effectiveness on suppression of dental flora in vitro” value in the assay with dental flora (plaque) (in many individuals) is listed as “sufficiently effective”. Moreover, the “most effective panel of cannabinoids” value in the assay on dental flora (plaque) (patient B) was “most effective”. In addition, the Relative effectiveness result with gingival plaque (subject B, no gingivitis and no pathology, DPSI score 0, 2 days at 37° C.) is “POM ≈ POM form. ≈ CBD > CBD form”; with gingival plaque (setting [2]) it was “CBC > CBG > CBD > CBN”; in the assay on gingival plaque (setting [4]) it was “CBG ≈ CBGA > CBC > CBD”; in the assay with gingival plaque (setting [5]), “CBC > CBG ≈ CBGA ≈ CBD”. Besides, the “bacterial growth in the saturated zone” value in the assay on dental biofilm/plaque is reported as “no growth”.

`CCCCCc1cc(O)c(C/C=C(\C)CCC=C(C)C)c(O)c1` [CBG, Cannabigerol]: the Relative effectiveness entry with gingival plaque (setting [1]) is reported as “CBG > CBGA > CBN ≈ CBC”; in the assay on gingival plaque (setting [2]), “CBC > CBG > CBD > CBN”; with gingival plaque (setting [3]), “CBGA > CBC > CBG ≈ CBN”; with gingival plaque (setting [4]) it was “CBG ≈ CBGA > CBC > CBD”; in the assay with gingival plaque (setting [5]) it was “CBC > CBG ≈ CBGA ≈ CBD”. In addition, the “bacterial growth in the saturated zone” value with dental biofilm/plaque was “lesser bacterial growth”.

On to `CCCCCc1cc(O)c(C/C=C(\C)CCC=C(C)C)c(O)c1C(=O)O` [CBGA, Cannabigerolic acid], for which the Relative effectiveness result with gingival plaque (setting [1]) is given as “CBG > CBGA > CBN ≈ CBC”; with gingival plaque (setting [3]) it was “CBGA > CBC > CBG ≈ CBN”; in the assay with gingival plaque (setting [4]), “CBG ≈ CBGA > CBC > CBD”; with gingival plaque (setting [5]), “CBC > CBG ≈ CBGA ≈ CBD”.

Consider `CCCCCc1cc(O)c2c(c1)OC(C)(C)c1ccc(C)cc1-2` [CBN, Cannabinol], for which the Relative effectiveness entry in the assay with gingival plaque (setting [1]) is “CBG > CBGA > CBN ≈ CBC”; in the assay with gingival plaque (setting [2]) it was “CBC > CBG > CBD > CBN”; in the assay with gingival plaque (setting [3]), “CBGA > CBC > CBG ≈ CBN”.

`N=C(NCCCCCCNC(=N)NC(=N)Nc1ccc(Cl)cc1)NC(=N)Nc1ccc(Cl)cc1.O=C(O)[C@H](O)[C@@H](O)[C@H](O)[C@H](O)CO.O=C(O)[C@H](O)[C@@H](O)[C@H](O)[C@H](O)CO` [CHG, chlorhexidine gluconate]: the “suppression of bacterial flora (score)” value in the assay with dental flora (plaque) (subject A) is listed as “+ +”; with dental flora (plaque) (subject B), “+ +”; with dental flora (plaque) (subject C) it was “+”; with dental flora (plaque) (subject D) it was “+ +”; with dental flora (plaque) (subject E) it was “− −”; in the assay with dental flora (plaque) (subject F) it was “− −”. Further, the “suppression of bacterial flora (score)” value is given as “+ + +” in the assay with dental flora (plaque) (subject G), “+” with dental flora (plaque) (subject H), “+ +” in the assay on dental flora (plaque) (subject I) and “− −” in the assay on dental flora (plaque) (subject J). Further, in the assay with dental biofilm/plaque, the “bacterial growth in the saturated zone” value is given as “lesser bacterial growth”.
